IC50 data for 1 molecule are collected here from ChEMBL document CHEMBL1909529, “Molecular dynamics simulations and MM/GBSA methods to investigate binding mechanisms of aminomethylpyrimidine inhibitors with DPP-IV” (Bioorg Med Chem Lett, 2011).

The experiment addresses Dipeptidyl peptidase 4 (Homo sapiens, UniProt P27487). The experiment can be described thus: Inhibition of DPP4.

pIC50: −log10 of the molar value.

Sequence of Dipeptidyl peptidase 4 (P27487 whole entry): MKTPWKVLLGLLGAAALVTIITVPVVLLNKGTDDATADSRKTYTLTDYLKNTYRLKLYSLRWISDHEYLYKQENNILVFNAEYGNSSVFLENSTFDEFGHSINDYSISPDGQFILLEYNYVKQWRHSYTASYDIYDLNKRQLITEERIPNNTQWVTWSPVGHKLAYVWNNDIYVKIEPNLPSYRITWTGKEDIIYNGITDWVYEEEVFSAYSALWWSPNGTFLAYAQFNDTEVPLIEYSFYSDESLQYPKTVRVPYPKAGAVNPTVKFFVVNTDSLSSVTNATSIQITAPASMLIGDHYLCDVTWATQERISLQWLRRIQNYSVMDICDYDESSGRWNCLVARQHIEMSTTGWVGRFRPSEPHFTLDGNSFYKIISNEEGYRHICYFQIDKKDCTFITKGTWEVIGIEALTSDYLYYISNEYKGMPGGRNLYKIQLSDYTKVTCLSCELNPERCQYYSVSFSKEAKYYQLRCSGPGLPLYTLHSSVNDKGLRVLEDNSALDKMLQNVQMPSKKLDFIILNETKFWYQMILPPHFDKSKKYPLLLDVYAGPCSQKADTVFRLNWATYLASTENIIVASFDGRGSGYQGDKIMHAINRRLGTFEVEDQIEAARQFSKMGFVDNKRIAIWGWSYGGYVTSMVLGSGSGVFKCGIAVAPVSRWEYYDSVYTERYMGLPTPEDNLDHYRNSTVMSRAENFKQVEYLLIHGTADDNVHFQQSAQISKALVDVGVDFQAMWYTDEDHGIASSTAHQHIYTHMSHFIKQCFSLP

The pIC50 is the negative decadic logarithm of the IC50, by convention in mol/L. Read a low pIC50 as a high IC50. The molecule `NCc1c(N)nc(-c2cc(F)cc(F)c2)nc1-c1ccc(Cl)cc1Cl` showed a pIC50 of 8.52.
